Data from patent US11660289B2 (Small Pharma Ltd, priority 2020, dated 2023).
Like-named read-outs stand apart in the source and are kept apart here.

What was measured:
[1] = Human liver mitochondrial fraction intrinsic clearance; assay type: in vitro ADME; conditions: 0.5 mg/mL human liver mitochondrial fraction
Protocol: Human Liver Mitochondrial (HLMt) fractions contain high quantities of MAO enzymes and therefore, provide a useful model system to measure the clearance of MAO substrates.
A series of investigations using HLMts were conducted to assess the effect of MAO on the metabolism of DMT and deuterated DMT analogues in vitro.

[2] = Rat hepatocyte stability of D0, D6 and D8 5-MeO-DMT analogues; assay type: in vitro ADME; conditions: cryopreserved pooled rat hepatocytes, 0.5×10^6 viable cells/mL, 60 min; for half-life at 1 μM: cryopreserved pooled rat hepatocytes in suspension, read-out: Qualified t1/2; for hepatocyte CLint at 1 μM: read-out: Qualified CLint (μL/min/10^6 cells)
Protocol: (§1) Test compounds (5 μM) were incubated with cryopreserved hepatocytes in suspension. Samples were removed at 6 time points over the course of a 60 min experiment and test compounds were analysed by LC-MS/MS.
(§2) The final incubation volume was 500 μL.
(§3) Two control compounds were included with each species. Each compound was incubated for 0, 5, 10, 20, 40 and 60 min at 37° C. The reactions were stopped by transferring incubate into acetonitrile at the appropriate time points, in a 1:3 ratio. The termination plates were centrifuged at 3,000 rpm for 30 min at 4° C. to precipitate the protein.
(§4) Following protein precipitation, the sample supernatants were combined in cassettes of up to 4 compounds, internal standard was added and samples analysed using Cyprotex generic LC-MS/MS conditions.
(§5) From a plot of ln peak area ratio (compound peak area/internal standard peak area) against time, the gradient of the line is determined. Subsequently, half-life (t½) and intrinsic clearance (CLint) were calculated using the equations below:
(§6) Elimination rate constant (k)=(−gradient)
(§7) where V=Incubation volume (μL)/Number of cells

[3] = Human hepatocyte stability of D0, D6 and D8 5-MeO-DMT analogues; assay type: in vitro ADME; conditions: cryopreserved pooled human hepatocytes in suspension, cryopreserved pooled human hepatocytes, 0.5×10^6 viable cells/mL, 60 min; for hepatocyte CLint: read-out: Qualified CLint (μL/min/10^6 cells); for half-life: read-out: Qualified t1/2
Protocol: as §1, §2, §3, §4, §5, §6, §7

[4] = in vivo; cited from earlier work
Rat hepatocytes = assay: Rat hepatocyte stability of D0, D6 and D8 5-MeO-DMT analogues; assay type: in vitro ADME; conditions: for Fold change from 5-MeO-DMT, CLint / Fold change from 5-MeO-DMT, t1/2: Rat hepatocytes; for Qualified CLint (μL/min/10^6 cells) / Qualified t1/2: cryopreserved pooled rat hepatocytes, 0.5×10^6 viable cells/mL, 60 min
Protocol: as §1, §2, §3, §4, §5, §6, §7

Human hepatocytes = assay: Human hepatocyte stability of D0, D6 and D8 5-MeO-DMT analogues; assay type: in vitro ADME; conditions: for Fold change from 5-MeO-DMT, CLint / Fold change from 5-MeO-DMT, t1/2: Human hepatocytes; for Qualified CLint (μL/min/10^6 cells) / Qualified t1/2: cryopreserved pooled human hepatocytes, 0.5×10^6 viable cells/mL, 60 min
Protocol: as §1, §2, §3, §4, §5, §6, §7

[5] = cited from earlier work
[6] = In vivo pharmacokinetic profile after IV and IM dosing in rats
[7] = Human half-life and clearance of DMT calculated from modelled literature data; conditions: in vivo; for clearance: read-out: clearance rate
Description: DMT is metabolised very quickly in the human body. […] Based on these calculations, we reasoned that DMT is largely metabolised before reaching the human liver.

[8] = tested on: Human (mixed gender) hepatocytes; assay: Human hepatocyte intrinsic clearance of DMT and deuterated DMT analogues
Protocol: Standard final incubation conditions are 1 μM compound in buffer containing nominally ˜0.5 million viable cells/mL, ˜0.9% (v/v) acetonitrile (MeCN) and ˜0.1% (v/v) DMSO (specific assay concentrations outlined above, section 2).
Samples are then centrifuged at 4 oc.

[9] = calculated from modelled data of Timmermann et al.

NCc1ccccc1 [Benzylamine, benzylamine]
Intrinsic Clearance (μL/min/mg protein) [1]: 60.0 μL/min/mg protein
half-life [1]: 23.2 min

COc1ccc2[nH]cc(CCN(C)C)c2c1 [Compound 5-MeO-DMT, 5-Methoxy-N,N-dimethyltryptamine]
half-life at 1 μM [2]: 4.46 min
hepatocyte CLint at 1 μM [2]: 312 µL/min/1e6 cells
hepatocyte CLint [3]: 104 µL/min/1e6 cells
half-life [3]: 13.3 min

[2H]C([2H])(c1c[nH]c2ccccc12)C([2H])([2H])N(C)C [Compound D4DMT, α,α,β,β-tetradeuterio-DMT]
onset and behaviour disrupting effects compared to equal doses of DMT [4]: shorter time to onset and potentiation of behaviour disrupting effects

[2H]C([2H])([2H])N(CCc1c[nH]c2ccc(OC)cc12)C([2H])([2H])[2H] [Compound D6-5MeO-DMT, d6-5-Methoxydimethyltryptamine]
Fold change from 5-MeO-DMT, CLint (Rat hepatocytes): 1.5 fold
Fold change from 5-MeO-DMT, t1/2 (Rat hepatocytes): 1.5 fold
Qualified CLint (μL/min/10^6 cells) (Rat hepatocytes): 205.5 μL/min/10^6 cells
Qualified t1/2 (Rat hepatocytes): 6.76 min
Fold change from 5-MeO-DMT, CLint (Human hepatocytes): 1.2 fold
Fold change from 5-MeO-DMT, t1/2 (Human hepatocytes): 1.2 fold
Qualified CLint (μL/min/10^6 cells) (Human hepatocytes): 85.7 μL/min/10^6 cells
Qualified t1/2 (Human hepatocytes): 16.2 min

CNCCc1c[nH]c2ccccc12 [NMT, N-Methyltryptamine]
duration of “visuals” ([5]; smoking, 50-100 mg): 15 to 30 s

O=C(c1ccc(OCCN2CCCCC2)cc1)c1c(-c2ccc(O)cc2)sc2cc(O)ccc12 [Raloxifene]
half-life at 1 μM [2]: 11.1 min
hepatocyte CLint at 1 μM [2]: 125 µL/min/1e6 cells
hepatocyte CLint [3]: 152 µL/min/1e6 cells
half-life [3]: 9.13 min

CN(C)CCc1c[nH]c2ccccc12 [SPL026, N,N-dimethyltryptamine]
duration of action ([5]; in vivo): under 20 minutes
Intrinsic Clearance (μL/min/mg protein) [1]: 161.0 μL/min/mg protein
half-life [1]: 8.6 min
Difference in AUC0-inf between male and female groups ([6]; rats, 2 mg/kg IV fumarate): no significant difference
clearance ([7]; based on a 70 kg person): 350 mL/min/kg
half-life [7, 9]: ~5 min
clearance [7, 9]: 24500 mL/min

[2H]C([2H])([2H])N(CCc1c[nH]c2ccccc12)C([2H])([2H])[2H] [SPL028vii, N,N-hexadeuterio-dimethyltryptamine]
Intrinsic clearance of SPL026 minus intrinsic clearance of SPL028vii [8]: 2.3 μL/min/million cells

[2H]C([2H])([2H])N(C([2H])([2H])[2H])C([2H])([2H])Cc1c[nH]c2ccccc12 [SPL028viii, α,α,bis-deuterio-N,N-hexadeuterio-dimethyltryptamine]
Intrinsic Clearance (μL/min/mg protein) [1]: 10.9 μL/min/mg protein
Overall exposure compared with DMT (SPL026) ([6]; rat plasma, following IV and IM dosing (FIGS. 1 to 3)): greater overall exposure
Total systemic exposure (mean AUC0-inf) compared to SPL026 ([6]; rats, equivalent single IV and IM doses, ANOVA): significantly higher total systemic exposure
Cmax compared with DMT (SPL026) ([6]; rats, following IM dosing): significantly higher

NCCc1c[nH]c2ccc(O)cc12 [Serotonin, serotonin]
Intrinsic Clearance (μL/min/mg protein) [1]: 151.0 μL/min/mg protein
half-life [1]: 9.2 min

d8-5-Methoxydimethyltryptamine [Compound D8-5MeO-DMT]
Fold change from 5-MeO-DMT, CLint (Rat hepatocytes): 1.8 fold
Fold change from 5-MeO-DMT, t1/2 (Rat hepatocytes): 1.8 fold
Qualified CLint (μL/min/10^6 cells) (Rat hepatocytes): 176.0 μL/min/10^6 cells
Qualified t1/2 (Rat hepatocytes): 7.89 min
Fold change from 5-MeO-DMT, CLint (Human hepatocytes): 1.8 fold
Fold change from 5-MeO-DMT, t1/2 (Human hepatocytes): 1.8 fold
Qualified CLint (μL/min/10^6 cells) (Human hepatocytes): 57.6 μL/min/10^6 cells
Qualified t1/2 (Human hepatocytes): 24.3 min
